Experimental data reported in patent US4226610A, “Herbicidal compounds, preparation thereof and herbicides containing the same” (Meiji Selka Kaisha, Ltd., priority 1978, dated 1980).

Assays:
[1] = tested on: torch azalea; assay: Experiment 3 foliar application to naturally growing shrubs; format: in vivo, Rhododendoron Kaempferi Planch.; conditions: for Reproduction-inhibiting: after 3 months
Method in brief: (§1)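 Compounds, diluted to prescribed concentrations with 0.1% octylphenyl polyoxyethanol as surfactant, were sprayed onto the foliage of naturally growing shrubs at 150 liter per 10 are. Kill was scored on a 0 (no effect) to 5 (death) index at 1 and 3 months. Regrowth was graded from − (no reproduction) to +++ (maximum) at 3 months.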

[2] = tested on: progbit; assay: Experiment 6 spray on aquatic plants in concrete pots; format: in vivo, Hydrocharis dubia; conditions: 3 months
Excerpt: (§2) The detail of the assessment made in the following Experiments of the invention was as follows:
(§3) Four months after treatment, evaluation was made for inhibition of reproduction expressed in terms of symbols ranging from (-) to (+++) where (-) means no reproduction, namely complete suppression of reproduction, (±) remarkable suppression of reproduction; (+) considerable suppression of reproduction; (++) medium supprestion of reproduction; and (+++) no suppression of reproduction.
(§4) A paddy field soil was packed in 50 cm. square concrete pots. omodaka (Sagittaria trifolia L.), urikawa (Sagittaria pygmaea Miq.), prog-bit (Hydrocharis dubia) and aginashi (Sagittaria Aginashi Makino) were transplanted; then water was poured onto the soil at 5 cm. depth.
(§5) Further, water hyacinth, greater-duckweed (Spirodela polyrhiza Schleid.) and duckweed (Lemna paucicostata Hegelm) were floated on the water.
(§6) After one month, the compounds of the invention diluted to the prescribed concentrations as indicated in Table 8 were sprayed in an amount of 100 liter per 10 are. As a surfactant, 0.1% of octylphenyl polyoxyethanol was added thereto.
(§7) The killing index (0, no effect; 5, death) after 21 days and 3 months and the reproduction-inhibiting effect (-, no reproduction; +++, maximum reproduction) after 3 months were determined.

[3] = tested on: pond scum; assay: Experiment 7 application to water; format: in vivo, Spirogira crassa Kutz.; parameters: scale not given here
Excerpt: (§8) A black soil was packed in 50 cm. square concrete pots and water was poured there-onto at 50 cm. in depth. Hornwort (Ceratophyllum demersum L.), stonewort (Chara Braunii Gmel.) and salvinia (Salvinia natans All.) were transplanted and pond scum (Spirogira crassa Kutz) and diatoms (Bacillariophyta) were floated in the water.
(§9) Then, the compounds of the invention were applied dropwise onto the surface of the water so that the prescribed concentrations in the water are obtained as indicated in Table 9.

[4] = tested on: aginashi; assay: Experiment 6 spray on aquatic plants in concrete pots; format: in vivo, Sagittaria Aginashi Makino; conditions: 3 months
Excerpt: as §2, §3, §4, §5, §6, §7

[5] = tested on: greaterduckweed; assay: as above; format: in vivo, Spirodela polyrhiza Sohleid.; conditions: for Reproduction-inhibiting effect: 3 months
Excerpt: as §2, §3, §4, §5, §6, §7

[6] = tested on: white clover; assay: Experiment 1 foliar application to naturally growing weeds; format: in vivo, Trifolium repens L.; conditions: 4 months
Method in brief: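 Test compounds, diluted to prescribed concentrations with 0.1% octylphenyl polyoxyethanol surfactant, were sprayed onto foliage of naturally growing weeds at 150 liter per 10 are. Killing index (0, no effect; 5, death) was scored at 21 days. Reproduction was scored from (-), complete suppression, to (+++), none, at 2 months for cockspar grass and 4 months for the other weeds.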

[7] = tested on: cockspar grass; assay: as above; format: in vivo, Echinochloa Crusgalli P. Beauv.; conditions: for Reproduction-inhibiting effect: 2 months
Method in brief: (§10)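 Foliar spray on field weeds at 150 liter per 10 are, compounds at prescribed concentrations plus 0.1% octylphenyl polyoxyethanol. Day 21: killing index 0–5 (5 = death). Reproduction scored (-) to (+++) (- = none): cockspar grass at 2 months, chigaya, azumanezasa and warunasubi at 4 months.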

[8] = tested on: yamazakura; assay: Experiment 3 foliar application to naturally growing shrubs; format: in vivo, Prunus donarium Sieb. var. spontanae Makino; conditions: after 3 months
Method in brief: as §1

[9] = tested on: diatoms; assay: Experiment 7 application to water; format: in vivo, Bacillariophyta; parameters: scale not given here
Excerpt: as §8, §9

[10] = tested on: azumanezasa; assay: Experiment 1 foliar application to naturally growing weeds; format: in vivo, Pleioblastus Chino Makino; conditions: 4 months
Method in brief: as §10

[11] = tested on: duckweed; assay: Experiment 6 spray on aquatic plants in concrete pots; format: in vivo, Lemna paucicostata Hegelm; conditions: for Reproduction-inhibiting effect: 3 months
Excerpt: as §2, §3, §4, §5, §6, §7

[12] = tested on: salvinia; assay: Experiment 7 application to water; format: in vivo, Salvinia natans Allioni; parameters: scale not given here
Excerpt: as §8, §9

[13] = tested on: stonewort; assay: Experiment 7 application to water; format: in vivo, Chara Braunii Gmel.; parameters: scale not given here
Excerpt: as §8, §9

[14] = tested on: Japanese bush cranberry; assay: Experiment 3 foliar application to naturally growing shrubs; format: in vivo, Viburnum dilatatum Thunb.; conditions: after 3 months
Method in brief: as §1

[15] = tested on: oak; assay: as above; format: in vivo, Quercus serrata Thunb; conditions: after 3 months
Method in brief: as §1

[16] = tested on: omodaka; assay: Experiment 6 spray on aquatic plants in concrete pots; format: in vivo, Sagittaria trifolia L.; conditions: 3 months
Excerpt: as §2, §3, §4, §5, §6, §7

[17] = tested on: eulalia; assay: Experiment 2 foliar application in Japanese cypress afforested land; format: in vivo, Miscanthus sinensis Andress.; parameters: key: 0 = no effect, 5 = death; conditions: 0.125%; after 3 months
Method in brief: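 Field foliar spray on shrubs in Japanese cypress afforested land at 150 liter per 10 are, with compounds at prescribed concentrations. Killing index scored from 0 (no effect) to 5 (death) at 30 days and 3 months. Plant heights ranged from about 50 to 100 cm.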

C[C@H](NC(=O)[C@H](C)NC(=O)[C@@H](N)CCP(C)(=O)O)C(=O)O [SF-1293 choline, (L-2-Amino-4-methylphosphinobutyryl)-L-alanyl-L-alanine choline]
Reproduction-inhibiting ([1]; 0.05%): ++
Reproduction-inhibiting ([1]; 0.1%): -
Killing index ([1]; 0.1%, after 30 days): 4.5
Reproduction-inhibiting ([1]; 0.2%): -
Reproduction-inhibiting effect ([2]; 0.05%): ++
Reproduction-inhibiting effect ([2]; 0.1%): ±
Reproduction-inhibiting effect ([2]; 0.2%): -
controlling effect ([3]; 1 ppm, 3 months): 1
controlling effect ([3]; 1 ppm, 21 days): 2
controlling effect ([3]; 3 ppm, 3 months): 5
controlling effect ([3]; 3 ppm, 21 days): 3.5
controlling effect ([3]; 10 ppm, 3 months): 5
controlling effect ([3]; 10 ppm, 21 days): 5
Reproduction-inhibiting effect ([4]; 0.05%): ++
Reproduction-inhibiting effect ([4]; 0.1%): ±
Reproduction-inhibiting effect ([4]; 0.2%): -
Reproduction-inhibiting effect ([5]; 0.05%): +
Reproduction-inhibiting effect ([5]; 0.1%): -
Killing index ([5]; 0.1%, 21 days): 4.5
Reproduction-inhibiting effect ([5]; 0.2%): -
Reproduction-inhibiting effect ([6]; 0.05%): +
Reproduction-inhibiting effect ([6]; 0.1%): -
Reproduction-inhibiting effect ([6]; 0.2%): -
Reproduction-inhibiting effect ([7]; 0.05%): +
Reproduction-inhibiting effect ([7]; 0.1%): ±
Killing index of Upperground parts ([7]; 0.1%, 21 days): 4.5
Reproduction-inhibiting effect ([7]; 0.2%): -
Reproduction-inhibiting ([8]; 0.05%): ++
Reproduction-inhibiting ([8]; 0.1%): -
Reproduction-inhibiting ([8]; 0.2%): -
controlling effect ([9]; 1 ppm, 3 months): 1
controlling effect ([9]; 1 ppm, 21 days): 2
controlling effect ([9]; 3 ppm, 3 months): 5
controlling effect ([9]; 3 ppm, 21 days): 3
controlling effect ([9]; 10 ppm, 3 months): 5
controlling effect ([9]; 10 ppm, 21 days): 5
Reproduction-inhibiting effect ([10]; 0.05%): +
Reproduction-inhibiting effect ([10]; 0.1%): -
Reproduction-inhibiting effect ([10]; 0.2%): -
Reproduction-inhibiting effect ([11]; 0.05%): +
Reproduction-inhibiting effect ([11]; 0.1%): -
Killing index ([11]; 0.1%, 21 days): 4.5
Reproduction-inhibiting effect ([11]; 0.2%): -
controlling effect ([12]; 1 ppm, 3 months): 3
controlling effect ([12]; 1 ppm, 21 days): 3.5
controlling effect ([12]; 3 ppm, 3 months): 5
controlling effect ([12]; 3 ppm, 21 days): 4.5
controlling effect ([12]; 10 ppm, 3 months): 5
controlling effect ([12]; 10 ppm, 21 days): 5
controlling effect ([13]; 1 ppm, 3 months): 2
controlling effect ([13]; 1 ppm, 21 days): 3
controlling effect ([13]; 3 ppm, 3 months): 5
controlling effect ([13]; 3 ppm, 21 days): 4
controlling effect ([13]; 10 ppm, 3 months): 5
controlling effect ([13]; 10 ppm, 21 days): 5
Reproduction-inhibiting ([14]; 0.05%): ++
Reproduction-inhibiting ([14]; 0.1%): -
Reproduction-inhibiting ([14]; 0.2%): -
Reproduction-inhibiting ([15]; 0.05%): ++
Reproduction-inhibiting ([15]; 0.1%): -
Reproduction-inhibiting ([15]; 0.2%): -
Reproduction-inhibiting effect ([16]; 0.05%): ++
Reproduction-inhibiting effect ([16]; 0.1%): ±
Reproduction-inhibiting effect ([16]; 0.2%): -
Killing index [17]: 4.5
